Test results as given in article PMC3086245 (Emerging Infectious Diseases, 2010).

Tests used:
[1] = tested on: influenza viruses A (H1N1) isolates, H275Y on N1 NA protein; set-up: species or system influenza virus A (H1N1)
[2] = molecular target: NA of oseltamivir-resistant influenza viruses A (H1N1) (ORVs) with H275Y (Influenza A virus (H1N1), UniProt E3JK96); format: biochemical

SMILES | susceptibility to oseltamivir (in words) [1] | sensitivity of ORVs to the drug (in words) [2]
CCOC(=O)C1=C[C@@H](OC(CC)CC)[C@H](NC(C)=O)[C@@H](N)C1 [Oseltamivir, oseltamivir] | resistant | 
CC(=O)N[C@H]1[C@H]([C@H](O)[C@H](O)CO)OC(C(=O)O)=C[C@@H]1N=C(N)N [Zanamivir, zanamivir] |  | sensitive
